Drawing on PubChem BioAssay AID338 (DTP/NCI, 2004), this text covers T/C for one compound.

Where “and” joins values, the source holds several entries; their conditions need not be identical. Identical values can stand only once. Inconclusive results and toxic doses are left out.

The subject of this test is BDF1 mice, P388 leukemia (terephthalanilide-resistant), survival T/C. The test can be described thus: NCI In Vivo Anticancer Drug Screen. Data for tumor model P388 Leukemia resistant to A Terephthalanilide; NSC 38280 (intraperitoneal) in B6D2F1 (BDF1) mice. The following applies: endpoint: median survival time, schedule: Q01DX010 (ip), vehicle: saline, higher = longer survival. As to the method: The antitumor activity of compounds was measured in mice bearing transplantable tumors. Survival or tumor size were measured and the results are expressed as the measurement made in the treated group (T) divided by the measurement made in the vehicle treated control group (C). The tumor model used in this assay is P388 Leukemia resistant to A Terephthalanilide; NSC 38280 (intraperitoneal) in B6D2F1 (BDF1) mice

As to `S=P(N1CCOCC1)(N1CC1)N1CC1`, the T/C is, setting by setting: (dose: 2.5 mg/kg/injection) 105 % of control and 111 % of control; (dose: 5.0 mg/kg/injection) 94 % of control and 105 % of control.
